Experimental data from ChEMBL document CHEMBL1201862, “PubChem BioAssay data set” (2004).
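All cell lines were grown in 96-well plates and treated with compound for 48 hours. Abbreviation: GI50, concentration required for 50% inhibition of growth.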 Calls of active or inactive are those of the source. No stated cut-off is given here; in the data, active = GI50 up to about 1.1 µM and inactive = higher.

Key:
Experiment in all cases: NCI anticancer screen, dose series, 48 h
A549 = system: A549
MDA-N = system: MDA-N
SF-295 = system: SF-295
CAKI-1 = system: CAKI-1
Hs-578T = system: Hs-578T
UACC-257 = system: UACC-257
NCI/ADR-RES = system: NCI/ADR-RES
SK-MEL-28 = system: SK-MEL-28
HL-60 = system: HL-60
NCI-H23 = system: NCI-H23
OVCAR-4 = system: OVCAR-4
NCI-H522 = system: NCI-H522
LOX IMVI = system: LOX IMVI
SF-539 = system: SF-539
K562 = system: K562
PC-3 = system: PC-3
SR = system: SR
EKVX = system: EKVX
RXF 393 = system: RXF 393

SMILES	GI50 (A549)	GI50 (MDA-N)	GI50 (SF-295)	GI50 (CAKI-1)	GI50 (Hs-578T)	GI50 (UACC-257)	GI50 (NCI/ADR-RES)	GI50 (SK-MEL-28)	GI50 (HL-60)	GI50 (NCI-H23)	GI50 (OVCAR-4)	GI50 (NCI-H522)	GI50 (LOX IMVI)	GI50 (SF-539)	GI50 (K562)	GI50 (PC-3)	GI50 (SR)	GI50 (EKVX)	GI50 (RXF 393)
O=C(CC(O)(C(F)(F)F)C(F)(F)F)c1cccs1	> 10 µM (inactive)	> 10 µM (inactive)	> 10 µM (inactive)	> 10 µM (inactive)	> 10 µM (inactive)	> 10 µM (inactive)	> 10 µM (inactive)	> 10 µM (inactive)	> 10 µM (inactive)	> 10 µM (inactive)	> 10 µM (inactive)	> 10 µM (inactive)	> 10 µM (inactive)	> 10 µM (inactive)	> 10 µM (inactive)	> 10 µM (inactive)	> 10 µM (inactive)	–	–
Cc1ccc(NC(=O)C(=O)C2C(=O)C3=C(CC2(C)C)NC2C=CC=CC2S3)c(C)c1 (stereo not given)	> 100 µM (inactive)	> 100 µM (inactive)	> 100 µM (inactive)	> 100 µM (inactive)	51.3 µM (inactive)	> 100 µM (inactive)	> 100 µM (inactive)	> 100 µM (inactive)	> 100 µM (inactive)	> 100 µM (inactive)	> 100 µM (inactive)	> 100 µM (inactive)	> 100 µM (inactive)	43.8 µM (inactive)	–	> 100 µM (inactive)	–	73.8 µM (inactive)	> 100 µM (inactive)
CCCCN1CCC(O)(c2cc(C(=O)O)[nH]c2-c2cc(C)no2)C1=O (stereo not given)	> 100 µM (inactive)	> 100 µM (inactive)	> 100 µM (inactive)	> 100 µM (inactive)	> 100 µM (inactive)	> 100 µM (inactive)	> 100 µM (inactive)	> 100 µM (inactive)	–	> 100 µM (inactive)	> 100 µM (inactive)	> 100 µM (inactive)	–	–	> 100 µM (inactive)	> 100 µM (inactive)	–	> 100 µM (inactive)	43.5 µM (inactive)
C=C(CCOC)CCC1CCCCC(=C)[C@H]1O (stereo not given in full)	> 100 µM (inactive)	> 100 µM (inactive)	> 100 µM (inactive)	> 100 µM (inactive)	> 100 µM (inactive)	> 100 µM (inactive)	> 100 µM (inactive)	> 100 µM (inactive)	> 100 µM (inactive)	> 100 µM (inactive)	> 100 µM (inactive)	> 100 µM (inactive)	–	–	> 100 µM (inactive)	> 100 µM (inactive)	> 100 µM (inactive)	> 100 µM (inactive)	–
Cc1nc(N(C(C)C)C(C)C)c(C(C)C)o1	> 100 µM (inactive)	> 100 µM (inactive)	> 100 µM (inactive)	> 100 µM (inactive)	> 100 µM (inactive)	> 100 µM (inactive)	> 100 µM (inactive)	> 100 µM (inactive)	> 100 µM (inactive)	> 100 µM (inactive)	> 100 µM (inactive)	> 100 µM (inactive)	> 100 µM (inactive)	> 100 µM (inactive)	> 100 µM (inactive)	> 100 µM (inactive)	–	> 100 µM (inactive)	> 100 µM (inactive)
CC1=C(O)C(=O)C2=C(C1=O)[C@@H]([C@@H](C)C/C=C/C(C)(C)O)CC[C@@H]2C	53.5 µM (inactive)	44.8 µM (inactive)	44.3 µM (inactive)	37.9 µM (inactive)	48.6 µM (inactive)	61.8 µM (inactive)	77.1 µM (inactive)	–	33.4 µM (inactive)	49.2 µM (inactive)	–	21.3 µM (inactive)	29.6 µM (inactive)	> 100 µM (inactive)	41.1 µM (inactive)	51.1 µM (inactive)	35.3 µM (inactive)	–	–
CN1C(=O)c2ccccc2C(O)(c2ccccc2)C1(O)c1ccccc1 (stereo not given)	69.5 µM (inactive)	> 100 µM (inactive)	> 100 µM (inactive)	43.4 µM (inactive)	29.2 µM (inactive)	> 100 µM (inactive)	> 100 µM (inactive)	> 100 µM (inactive)	–	81.8 µM (inactive)	72.8 µM (inactive)	> 100 µM (inactive)	> 100 µM (inactive)	> 100 µM (inactive)	> 100 µM (inactive)	52.6 µM (inactive)	43 µM (inactive)	81.5 µM (inactive)	83.9 µM (inactive)
CC1CCCOc2ccc(cc2)/C=N\c2ccc(cc2)CCc2ccc(cc2)/N=C\c2ccc(cc2)OCCC1	> 100 µM (inactive)	> 100 µM (inactive)	> 100 µM (inactive)	> 100 µM (inactive)	> 100 µM (inactive)	> 100 µM (inactive)	> 100 µM (inactive)	> 100 µM (inactive)	–	> 100 µM (inactive)	> 100 µM (inactive)	> 100 µM (inactive)	> 100 µM (inactive)	> 100 µM (inactive)	> 100 µM (inactive)	> 100 µM (inactive)	> 100 µM (inactive)	> 100 µM (inactive)	–
CC12C=CC(C)(C3C(=O)C4C(C(=O)C31)C1(C)C=CC4(C)[S+]1[O-])[S+]2[O-] (stereo not given)	> 100 µM (inactive)	> 100 µM (inactive)	> 100 µM (inactive)	> 100 µM (inactive)	> 100 µM (inactive)	71.9 µM (inactive)	64.7 µM (inactive)	–	–	> 100 µM (inactive)	–	38.4 µM (inactive)	81.5 µM (inactive)	25.4 µM (inactive)	–	> 100 µM (inactive)	–	> 100 µM (inactive)	> 100 µM (inactive)
COc1ccc([N+](=O)[O-])c2c(NCC(O)CO)ccnc12 (stereo not given)	35 µM (inactive)	49.3 µM (inactive)	39.8 µM (inactive)	52.6 µM (inactive)	22.5 µM (inactive)	28.1 µM (inactive)	–	> 100 µM (inactive)	51.1 µM (inactive)	18 µM (inactive)	13.5 µM (inactive)	15.5 µM (inactive)	36.1 µM (inactive)	28.8 µM (inactive)	18.5 µM (inactive)	49.8 µM (inactive)	34.4 µM (inactive)	16.1 µM (inactive)	28.1 µM (inactive)
CC(C)(C)OC(=O)n1c(Cl)c(C=O)c2ccccc21	92.9 µM (inactive)	44.5 µM (inactive)	63.2 µM (inactive)	17.2 µM (inactive)	34.8 µM (inactive)	28.8 µM (inactive)	30.7 µM (inactive)	39.9 µM (inactive)	33.8 µM (inactive)	23.3 µM (inactive)	36.6 µM (inactive)	> 100 µM (inactive)	26.4 µM (inactive)	30.1 µM (inactive)	38.7 µM (inactive)	22 µM (inactive)	31.2 µM (inactive)	28 µM (inactive)	–
OC1(c2ccccc2)CCN(Cc2c[nH]c3ccccc23)CC1	> 100 µM (inactive)	30.7 µM (inactive)	92.7 µM (inactive)	> 100 µM (inactive)	> 100 µM (inactive)	18.3 µM (inactive)	> 100 µM (inactive)	20.7 µM (inactive)	48.2 µM (inactive)	96.6 µM (inactive)	> 100 µM (inactive)	> 100 µM (inactive)	76.4 µM (inactive)	79.3 µM (inactive)	33.2 µM (inactive)	> 100 µM (inactive)	–	> 100 µM (inactive)	63.2 µM (inactive)
CC(=O)C1=C(C)N2C(=NC3=C(CCc4ccccc43)C2c2ccc(Cl)cc2)S1 (stereo not given)	53.8 µM (inactive)	46.8 µM (inactive)	> 100 µM (inactive)	> 100 µM (inactive)	> 64 µM (inactive)	> 78.5 µM (inactive)	> 73.8 µM (inactive)	> 100 µM (inactive)	4.42 µM (inactive)	71.1 µM (inactive)	> 36.1 µM (inactive)	6.53 µM (inactive)	> 81.1 µM (inactive)	> 92.9 µM (inactive)	2.05 µM (inactive)	10.2 µM (inactive)	–	46.8 µM (inactive)	5.56 µM (inactive)
Cc1ccc2c(c1)C(=O)/C(=C\c1ccccc1)CCS2(=O)=O	12.9 µM (inactive)	16.9 µM (inactive)	14.2 µM (inactive)	17.2 µM (inactive)	15.8 µM (inactive)	12.3 µM (inactive)	7.23 µM (inactive)	18.5 µM (inactive)	0.303 µM (active)	12.7 µM (inactive)	12 µM (inactive)	4.36 µM (inactive)	10.7 µM (inactive)	10.3 µM (inactive)	2.32 µM (inactive)	10.4 µM (inactive)	2.92 µM (inactive)	22.1 µM (inactive)	–
NS(=O)(=O)c1ccc(NS(=O)(=O)c2ccc(NC(=O)N(c3ccccc3)c3ccccc3)cc2)cc1	> 100 µM (inactive)	32.3 µM (inactive)	35.7 µM (inactive)	67 µM (inactive)	> 100 µM (inactive)	77.4 µM (inactive)	> 100 µM (inactive)	> 100 µM (inactive)	–	> 100 µM (inactive)	45.2 µM (inactive)	30.5 µM (inactive)	34.4 µM (inactive)	–	26.1 µM (inactive)	51.1 µM (inactive)	–	> 100 µM (inactive)	21.9 µM (inactive)
O=c1ccc2ccc(O)cc2o1 [UMBELLIFERONE]	> 100 µM (inactive)	> 100 µM (inactive)	> 100 µM (inactive)	> 100 µM (inactive)	> 100 µM (inactive)	> 100 µM (inactive)	> 100 µM (inactive)	> 100 µM (inactive)	> 100 µM (inactive)	> 100 µM (inactive)	> 100 µM (inactive)	> 100 µM (inactive)	> 100 µM (inactive)	> 100 µM (inactive)	–	> 100 µM (inactive)	–	> 100 µM (inactive)	> 100 µM (inactive)
